The term melting point denotes the temperature of the solid-liquid transition.

Each structure is given as a SMILES string.

Compound `O=c1[nH]c(=Cc2ccco2)c(=O)[nH]c1=Cc1ccc(OCc2ccccc2)cn1` [Compound 7, 3-[(5-benzyloxypyridin-2-yl)methylidene]-6-[(furan-2-yl)methylidene]piperazine-2,5-dione] showed a melting point of 256 to 257 °C.
With `O=c1[nH]c(=Cc2ccc(OCc3ccccc3)cn2)c(=O)[nH]c1=Cc1ccccn1` [Compound 9, 3-[(5-benzyloxypyridin-2-yl)methylidene]-6-[(2-pyridinyl)methylidene]piperazine-2,5-dione] the figure was 248 to 250 °C; with `O=c1[nH]c(=Cc2ccc(OCc3ccccc3)cn2)c(=O)[nH]c1=Cc1ccc(OCc2ccccc2)cn1` [Compound 10, 3,6-di[(5-phenylmethoxypyridin-2-yl)methylidene]piperazine-2,5-dione], 283 to 328 °C; with `CC(=O)N1CC(=O)NC(Cc2ccc(OCc3ccccc3)cn2)C1=O` (centres unmarked) [Compound 12, 1-acetyl-3-[(5-benzyloxypyridin-2-yl)methyl]piperazine-2,5-dione], 215 to 216 °C.
To `O=C1NC(Cc2ccc(OCc3ccccc3)cn2)C(=O)NC1Cc1ccc(OCc2ccccc2)cn1` (centres unmarked) [Compound 13, 3,6-di[(5-benzyloxypyridin-2-yl)methyl]piperazine-2,5-dione] belongs 228 to 231 °C.

Values taken from US6635649B2, “Piperazinedione compounds” (priority 2000, dated 2003).
